Experimental data taken from patent publication US11378572B2, “Therapeutic agent for immune cell migration-caused disease and method for screening same” (ZYMEDI CO., LTD., priority 2017, dated 2022).

Tests used:
ear skin wound model = experiment: Ear skin wound model (acute inflammatory response); format: in vivo, CX3CR1-GFP mouse; settings: 100 mg/kg oral once daily, 4 days
Experimental: To investigate the effect of the inhibitor of KRS translocation to the plasma membranes during monocyte infiltration in acute inflammatory responses, an ear skin wound model using CX3CR1-GFP mouse (Stock no. #005582, Jackson Laboratory, Bar Harbor, USA) was prepared. Monocytes, macrophages and Langerhans cells appear green in CX3R1-GFP mice. Mice were administered orally with vehicle or BC-KI-00053 (100 mg/kg, dissolved in vehicle, once daily) for a total of 4 days from 2 days prior to imaging (D−2, D−1, D−0, D+1). For a vehicle, corn oil:polyethylene glycol 400:Tween 80:methyl cellulose (1%)=20:30:1:49 was used. A 31G syringe was used to puncture the skin of the ear (time D−0) to induce acute inflammatory responses. Blood vessels were labeled using anti-CD31 antibody bound to Alexa Flour 555 (identifiable as red). Confocal microscopy was used as an imaging equipment.

[1] = tested on: CCl4 liver fibrosis animal; experiment: CCl4 (carbon tetrachloride)-induced liver fibrosis animal model; format: in vivo, Actin-DsRed mice
Experimental: Hepatocytes appear red in Actin-DsRed mice (Stock no. #006051, Jackson Laboratory (Bar Harbor, USA)). In order to induce liver fibrosis in this mouse, CCl4 (carbon tetrachloride) was dissolved in corn oil and injected intraperitoneally twice a week at a concentration of 20% for a total of 6 weeks. Three weeks after start of CCl4 administration, vehicle and BC-KI-00053 (100 mg/kg) were administered orally, daily for three weeks. For vehicle, corn oil:polyethylene glycol 400:Tween 80:methyl cellulose (1%)=20:30:1:49 was used.
The degree of fibrosis on the surface and inside (area with a depth of 30-50 μm) of liver was detected by the Second Harmonic Generation (SHG) technique of intravial imaging (Excitation: 780 nm, Detection: 390 nm).

[2] = tested on: liver ischemia-reperfusion injury model; experiment: Liver ischemia-reperfusion injury model; format: in vivo, CX3CR1-GFP mice; settings: 100 mg/kg oral once daily, 3 days; 24 hours of reperfusion
Experimental: A liver ischemia-reperfusion injury model was prepared using CX3CR1-GFP mice to investigate the effect of inhibitors of KRS translocation to the plasma membrane on the monocyte infiltration during ischemic immune responses. Monocytes, macrophages and Kupffer's cells appear green in CX3CR1-GFP mice. Mice were orally administered with vehicle or BC-KI-00053 (100 mg/kg, dissolved in vehicle, once daily) for a total of three days beginning two days before imaging (D-2, D-1, D-0). For vehicle, corn oil:polyethylene glycol 400: Tween 80: methyl cellulose (1%)=20:30:1:49 was used. On day 3 of oral administration (D-0), triad (bile duct, hepatic artery, […]) occlusion was performed using a 6-0 suture as shown in FIG. 8a. Triad occlusion was performed for 30 minutes to induce acute inflammation, and 3 g of Eppendorf tubes were suspended from both ends of the suture. Suture was removed and the ischemic inflammation site was observed immediately after reperfusion (0 hour) and 24 hours later. At this time, blood vessels were labeled with Alexa Flour 555-bound anti-CD31 antibody for repeated imaging (identifiable as red). Two-photon microscope was used as an imaging equipment.

[3] = tested on: 129Sv/J Alport mice (COL4A3 knockout mouse); experiment: Animal model of Alport syndrome; format: in vivo, 129Sv/J mice; settings: 100 mg/kg oral once a day, 4 weeks
Experimental: The experiment was conducted using 129Sv/J mice (Boys town hospital). Animals groups were (i) 129Sv/J wild-type mice with vehicle administration (0.5% methyl cellulose suspension), (ii) 129Sv/J Alport mice (COL4A3 knockout mouse, Cosgrove D et al., Genes Dev. 1996 Dec. 1, 10(23):2981-92) with vehicle administration (0.5% methyl cellulose suspension) (iii) 129Sv/J Alport mice with BC-KI-00053 administration. Each animal group consists of two mice. BC-KI-00053 was dissolved in 0.5% methyl cellulose suspension and orally administered at a concentration of 100 mg/kg, and kidney fibrosis and the immune cell infiltration were evaluated. Each animal group was treated with a control substance or a test agent once a day from 3 weeks of age for a total of 4 weeks. After 4 weeks of treatment, kidney paraffin sections were stained with collagen I (a marker of fibrosis) and CD45 to observe the extent of leukocyte infiltration. Evaluation of fibrosis and infiltration was performed in the same manner as in the above examples.

[4] = CCl4 6 weeks, BC-KI-00053 100 mg/kg oral daily for 3 weeks
[5] = normal animal (corn oil) + BC-KI-00053 100 mg/kg oral daily 3 weeks

Q: With `COc1ccc(CCN(Cc2ccc(C(=O)O)cc2)c2nc3cccc(F)c3s2)cc1` [BC-KI-00053, 4-({(7-fluorobenzo[d]thiazol-2-yl)[2-(4-methoxyphenyl)ethyl]amino}methyl)benzoic acid] as the compound, how does the “infiltration of monocytes and macrophages around skin wound” value (ear skin wound model) read?
A: Its value is “significantly reduced”.

Q: What about the “fibrosis in the surface and inside the liver (SHG imaging)” value [1, 4] of the same compound?
A: Its value is “greatly reduced”.

Q: What about the hepatocyte necrosis [1, 4] of the same compound?
A: The hepatocyte necrosis was “noticeably reduced”.

Q: And the “other symptoms in the liver” value [1, 5]?
A: Its value is “no other symptoms”.

Q: What about the weight loss [1, 5] of the same compound?
A: The weight loss was “no weight loss”.

Q: And the in vivo tolerability ([1]; normal animal + BC-KI-00053 100 mg/kg)?
A: Its in vivo tolerability is “innocuous”.

Q: And the “monocyte/macrophage infiltration into occluded liver area” value [2]?
A: Its value is “significantly reduced”.

Q: What about the “fibrosis in the kidneys (collagen I)” value [3] of the same compound?
A: The value was “reduced down to the normal level”.

Q: What about the “leukocyte infiltration in the kidneys (CD45)” value [3] of the same compound?
A: The value was “reduced down to the normal level”.
